{"source": "PubChem BioAssay AID1259410", "about": "(Chemical Carcinogenesis Research Information System (CCRIS), 2018)", "origin": "cited, not measured here", "tested_on": "rodent tumor promotion studies, tumor incidence", "test": "CCRIS tumor promotion studies", "conditions": "Route [Promoter]: ORAL"}
{"smiles": "CCC1(c2ccccc2)C(=O)NC(=O)NC1=O", "values": [{"measurement": "outcome", "setting": "Carcinogen: DIMETHYLNITROSAMINE, 62-75-9, Doses [Carcinogen]: 5 UG/G ONCE, Doses [Promoter]: 0, 500 PPM IN THE DRINKING WATER FOR 24 WK BEGINNING POST CARCINOGEN DOSE (STUDY DURATION: 26 WK), Route [Carcinogen]: INTRAPERITONEAL, Species: MOUSE, Strain/Sex: B6C3F1/MALE", "value": "liver: adenoma"}, {"measurement": "outcome", "setting": "Carcinogen: METHYL(ACETOXYMETHYL)NITROSAMINE, 56856-83-8, Doses [Carcinogen]: 0.05 MMOL/KG IN 5 ML STERILE PHOSPHATE BUFFER ONCE, Doses [Promoter]: 0, 500 PPM IN DRINKING WATER BEGINNING 2 WK POST CARCINOGEN DOSE AND CONTINUING FOR 78 WK (STUDY DURATION: 80 WK), Route [Carcinogen]: INTRAPERITONEAL, Species: RAT, Strain/Sex: F344/MALE", "value": "thyroid: follicular cell adenoma or follicular cell carcinoma or c-cell tumor; l"}, {"measurement": "outcome", "setting": "Carcinogen: METHYLNITROSOUREA, Doses [Carcinogen]: 20 MG/KG 2/WK FOR 4 WK, Doses [Promoter]: 0.05% IN DIET FOR 32 WK, Route [Carcinogen]: INTRAPERITONEAL, Species: RAT, Strain/Sex: F344/MALE", "value": "thyroid gland: adenocarcinoma"}, {"measurement": "outcome", "setting": "Carcinogen: N,N-DIETHYLNITROSAMINE, 55-18-5, Doses [Carcinogen]: 75 MG/KG IN SALINE ONCE AT 5 WK OF AGE, Doses [Promoter]: 0, 500 PPM IN DIET FOR 45 WK BEGINNING 2 WK POST CARCINOGEN TREATMENT (STUDY DURATION: 47 WK), Route [Carcinogen]: INTRAPERITONEAL, Species: RAT, Strain/Sex: F344/MALE", "value": "liver: hepatocellular adenoma"}, {"measurement": "outcome", "setting": "Carcinogen: N,N-DIETHYLNITROSAMINE, 55-18-5, Doses [Carcinogen]: 75 MG/KG IN SALINE ONCE AT 5 WK OF AGE, Doses [Promoter]: 0, 500 PPM IN DIET FOR 46-72 WK BEGINNING 2 WK POST CARCINOGEN TREATMENT (STUDY DURATION: 46-72 WK), Route [Carcinogen]: INTRAPERITONEAL, Species: RAT, Strain/Sex: F344/MALE", "value": "liver: hepatocellular adenoma"}, {"measurement": "outcome", "setting": "Carcinogen: N-BIS(2-HYDROXYPROPYL)NITROSAMINE, Doses [Carcinogen]: 70 MG/100 G BW 1/WK FOR 4 OR 6 WK, Doses [Promoter]: 500 PPM IN DIET FROM WK 5-16 OR 7-18, Route [Carcinogen]: SUBCUTANEOUS, Species: RAT, Strain/Sex: WISTAR/MALE", "value": "thyroid gland: follicular, papillary, and solid adenoma, carcinoma"}, {"measurement": "outcome", "setting": "Carcinogen: N-METHYL-N-NITROSOUREA, 684-93-5, Doses [Carcinogen]: 30 MG/KG BW ONCE AT 3 MO OF AGE, Doses [Promoter]: 0, 50 MG/100 G IN DIET FOR 7 MO BEGINNING 7 MO POST CARCINOGEN DOSE (STUDY DURATION: 14 MO), Route [Carcinogen]: INTRAVENOUS, Species: RAT, Strain/Sex: LOBUND-WISTAR/MALE", "value": "prostate/seminal vesicle: adenocarcinoma"}, {"measurement": "outcome", "setting": "Carcinogen: N-METHYL-N-NITROSOUREA, 684-93-5, Doses [Carcinogen]: 30 MG/KG BW ONCE, Doses [Promoter]: 0, 0.5% IN DIET FOR DURATION OF STUDY BEGINNING POST CARCINOGEN DOSE(STUDY DURATION: 14 MO), Route [Carcinogen]: INTRAVENOUS, Species: RAT, Strain/Sex: LOBUND-WISTAR/MALE", "value": "lung: carcinoma, prostate/seminal vesicles: tumor"}, {"measurement": "outcome", "setting": "Carcinogen: N-NITROSODIETHYLAMINE, 55-18-5, Doses [Carcinogen]: 5 UG/G BW ONCE AT 15 D OF AGE, Doses [Promoter]: 0, 500 PPM IN DRINKING WATER BEGINNING AT 4 WK OF AGE AND CONTINUING FOR DURATION OF STUDY (STUDY DURATION: 28 WK), Route [Carcinogen]: INTRAPERITONEAL, Species: MOUSE, Strain/Sex: C3H/HENCR/FEMALE", "value": "liver: hepatocellular adenoma"}, {"measurement": "outcome", "setting": "Carcinogen: N-NITROSODIETHYLAMINE, 55-18-5, Doses [Carcinogen]: 5 UG/G BW ONCE AT 15 D OF AGE, Doses [Promoter]: 0, 500 PPM IN DRINKING WATER BEGINNING AT 4 WK OF AGE AND CONTINUING FOR DURATION OF STUDY (STUDY DURATION: 28 WK), Route [Carcinogen]: INTRAPERITONEAL, Species: MOUSE, Strain/Sex: C3H/HENCR/MALE", "value": "liver: hepatocellular adenoma"}, {"measurement": "outcome", "setting": "Carcinogen: N-NITROSODIETHYLAMINE, 55-18-5, Doses [Carcinogen]: 75 MG IN STERILE SALINE ONCE, Doses [Promoter]: 0, 500 PPM IN DIET BEGINNING 2 WK POST CARCINOGEN DOSE AND CONTINUING FOR DURATION OF STUDY (STUDY DURATION: 78 WK), Route [Carcinogen]: INTRAPERITONEAL, Species: RAT, Strain/Sex: F344/MALE", "value": "liver: hepatocellular adenoma or carcinoma; thyroid gland: follicular cell adeno"}, {"measurement": "outcome", "setting": "Carcinogen: N-NITROSODIETHYLAMINE, 55-18-5, Doses [Carcinogen]: 75 MG ONCE, Doses [Promoter]: 0, 500 PPM IN DRINKING WATER BEGINNING 2 WK POST CARCINOGEN DOSE AND CONTINUING FOR DURATION OF STUDY (STUDY DURATION: 5, Route [Carcinogen]: INTRAPERITONEAL, Species: RAT, Strain/Sex: F344/MALE", "value": "liver: hepatocellular adenoma"}, {"measurement": "outcome", "setting": "Carcinogen: N-NITROSODIETHYLAMINE, 55-18-5, Doses [Carcinogen]: 75 MG ONCE, Doses [Promoter]: 0, 500 PPM IN DRINKING WATER BEGINNING 2 WK POST CARCINOGEN DOSE AND CONTINUING FOR DURATION OF STUDY (STUDY DURATION: 7, Route [Carcinogen]: INTRAPERITONEAL, Species: RAT, Strain/Sex: F344/MALE", "value": "liver: hepatocellular carcinoma; thyroid gland: follicular cell adenoma or adeno"}, {"measurement": "outcome", "setting": "Carcinogen: N-NITROSODIETHYLAMINE, 55-18-5, Doses [Carcinogen]: 90 MG/KG BW ONCE, Doses [Promoter]: 0, 500 PPM IN DIET FOR 53 WK BEGINNING 2 WK POST CARCINOGEN DOSE (STUDY DURATION: 55 WK), Route [Carcinogen]: INTRAPERITONEAL, Species: MOUSE, Strain/Sex: D2B6F1/MALE", "value": "liver: hepatocellular adenoma, hepatocellular carcinoma, hepatoblastoma"}, {"measurement": "outcome", "setting": "Carcinogen: N-NITROSODIETHYLAMINE, 7119-92-8, Doses [Carcinogen]: 80 MG/KG ONCE, Doses [Promoter]: 0, 500 PPM IN DIET BEGINNING 1 WK POST CARCINOGEN DOSE AND CONTINUING FOR 168 D (STUDY DURATION: 259 D), Route [Carcinogen]: INTRAPERITONEAL, Species: MOUSE, Strain/Sex: B6C3F1/MALE", "value": "liver: hepatocellular adenoma or carcinoma"}, {"measurement": "outcome", "setting": "Carcinogen: TAMOXIFEN, 10540-29-1, Doses [Carcinogen]: 420 PPM IN DIET FOR 3 MO, Doses [Promoter]: 0, 0.1% (W/V) IN DRINKING WATER FOR LIFE BEGINNING POST CARCINOGEN TREATMENT (STUDY DURATION: LIFETIME), Route [Carcinogen]: ORAL, Species: RAT, Strain/Sex: WISTAR/FEMALE", "value": "liver: tumor"}]}
